ChEMBL document CHEMBL3832761, “MMV Pathogen Box Bioactivity Data” (2017)
≈ marks a conversion by molar mass, not a printed value. Calls of active or inactive are those of the source. The calls are words filed in the database; no cut-off is given here.

Experiments:
[1] = tested on: Mycobacterium tuberculosis; assay: AntiMycobacterium tuberculosis activity Non-Replicating form: Average MIC90 (uM); type: functional
[2] = tested on: Mycobacterium tuberculosis; assay: AntiMycobacterium tuberculosis activity 1-week GAST/Fe MIC (uM); type: functional; settings: 168 h
[3] = tested on: Mycobacterium tuberculosis; assay: AntiMycobacterium tuberculosis activity 2-week GAST/Fe MIC (uM); type: functional; settings: 336 h
[4] = tested on: Mycobacterium tuberculosis; assay: AntiMycobacterium tuberculosis activity 1-week 7H9/ADC/Tw MIC (uM); type: functional; settings: 168 h
[5] = tested on: Mycobacterium tuberculosis; assay: AntiMycobacterium tuberculosis activity 2-week 7H9/ADC/Tw MIC (uM); type: functional; settings: 336 h
[6] = tested on: Mycobacterium tuberculosis; assay: AntiMycobacterium tuberculosis activity 2-week Alamar Blue 7H9/ADC/Tw MIC (uM); type: functional; settings: 336 h
[7] = tested on: Mycobacterium tuberculosis; assay: AntiMycobacterium tuberculosis activity 1-week 7H9/glucose/BSA/Tx MIC (uM); type: functional; settings: 168 h
[8] = tested on: Mycobacterium tuberculosis; assay: AntiMycobacterium tuberculosis activity 2-week 7H9/glucose/BSA/Tx MIC (uM); type: functional; settings: 336 h
[9] = tested on: Mycobacterium tuberculosis; assay: AntiMycobacterium tuberculosis activity 1-week 7H9/DPPC/cholesterol/BSA/Tx MIC (uM); type: functional; settings: 168 h
[10] = tested on: Mycobacterium tuberculosis; assay: AntiMycobacterium tuberculosis activity 2-week 7H9/DPPC/cholesterol/BSA/Tx MIC (uM); type: functional; settings: 336 h
[11] = tested on: Mycobacterium tuberculosis; assay: AntiMycobacterium tuberculosis activity 1-week 7H9/cholesterol/BSA/Tx MIC (uM); type: functional; settings: 168 h
[12] = tested on: Mycobacterium tuberculosis; assay: AntiMycobacterium tuberculosis activity 2-week Alamar Blue 7H9/cholesterol/BSA/Tx MIC (uM); type: functional; settings: 336 h
[13] = tested on: Mycobacterium tuberculosis; assay: (§1) AntiMycobacterium tuberculosis activity day 10 in 7H9/2.5mM butyrate/pH6/0.1mM nitrite MIC90 (uM); type: functional; settings: 240 h
[14] = tested on: Mycobacterium tuberculosis; assay: AntiMycobacterium tuberculosis activity day 21 in 7H9/2.5mM butyrate/pH6/0.1mM nitrite MIC90 (uM); type: functional; settings: 504 h
[15] = tested on: Mycobacterium tuberculosis; assay: as §1; type: functional; settings: 240 h; remark: listed apart in the source
[16] = tested on: Mycobacterium tuberculosis; assay: AntiMycobacterium tuberculosis activity day 21 MIC99 in 7H9/2.5mM butyrate/pH6/0.1mM nitrite MIC99 (uM); type: functional; settings: 504 h
[17] = tested on: Mycobacterium tuberculosis; assay: AntiMycobacterium tuberculosis activity Replicating form: Average MIC90 (uM); type: functional
HepG2 [18] = assay: HepG2 CC50 (uM) Cytotoxicity; type: functional; settings: Homo sapiens
Plasmodium falciparum = assay: Antimalarial activity: Asexual Blood Stage Plasmodium falciparum 3D7 IC50 (uM); type: functional, organism-based
HepG2 [19] = assay: Cytotoxicity data HepG2 CC20 (uM); type: functional

Compound	MIC90 [1] [µM]	MIC [2] [µM]	MIC [3] [µM]	MIC [4] [µM]	MIC [5] [µM]	MIC [6] [µM]	MIC [7] [µM]	MIC [8] [µM]	MIC [9] [µM]	MIC [10] [µM]	MIC [11] [µM]	MIC [12] [µM]	MIC90 [13] [µM]	MIC90 [14] [µM]	MIC90 [15] [µM]	MIC [16] [µM]	MIC90 [17] [µM]	CC50 (HepG2 [18]) [µM]	inhibition (Plasmodium falciparum)	CC20 (HepG2 [19]) [µM]
c1coc(CNc2nc(N3CCCCC3)nc3ccccc23)c1	27.8 (≈ 8.58 µg/mL)	9.4 (≈ 2.9 µg/mL)	9.4 (≈ 2.9 µg/mL)	19 (≈ 5.86 µg/mL)	25 (≈ 7.71 µg/mL)	25 (≈ 7.71 µg/mL)	6.25 (≈ 1.93 µg/mL)	12.5 (≈ 3.85 µg/mL)	6.25 (≈ 1.93 µg/mL)	9.4 (≈ 2.9 µg/mL)	4.7 (≈ 1.45 µg/mL)	6.25 (≈ 1.93 µg/mL)	12.5 (≈ 3.85 µg/mL)	25 (≈ 7.71 µg/mL)	12.5 (≈ 3.85 µg/mL)	25 (≈ 7.71 µg/mL)	8.41 (≈ 2.59 µg/mL)	18.6	–	–
CC(=O)NCC1CN(c2ccc(-c3ccc(CNCc4cn[nH]n4)cc3)c(F)c2)C(=O)O1 (stereo unspecified)	0.31 (≈ 0.136 µg/mL)	0.1 (≈ 0.0438 µg/mL)	0.15 (≈ 0.0658 µg/mL)	0.3 (≈ 0.132 µg/mL)	0.39 (≈ 0.171 µg/mL)	0.39 (≈ 0.171 µg/mL)	0.2 (≈ 0.0877 µg/mL)	0.3 (≈ 0.132 µg/mL)	0.1 (≈ 0.0438 µg/mL)	0.3 (≈ 0.132 µg/mL)	0.3 (≈ 0.132 µg/mL)	0.39 (≈ 0.171 µg/mL)	0.19 (≈ 0.0833 µg/mL)	0.39 (≈ 0.171 µg/mL)	1.5 (≈ 0.658 µg/mL)	1.5 (≈ 0.658 µg/mL)	0.51 (≈ 0.224 µg/mL)	> 100	–	–
O=C(c1[nH]nc2c1CCCC2)N1CCN(Cc2ccc3c(c2)OCO3)CC1	> 15.5	0.39 (≈ 0.144 µg/mL)	0.78 (≈ 0.287 µg/mL)	> 50	> 50	4.7 (≈ 1.73 µg/mL)	37 (≈ 13.6 µg/mL)	> 50	4.7 (≈ 1.73 µg/mL)	19 (≈ 7 µg/mL)	0.78 (≈ 0.287 µg/mL)	1.56 (≈ 0.575 µg/mL)	1.5 (≈ 0.553 µg/mL)	6.25 (≈ 2.3 µg/mL)	> 50	> 50	> 100	> 100	–	–
O=C(C1CCN(c2nnnn2-c2ccccc2)CC1)N1CCc2ccccc2C1	–	–	–	–	–	–	–	–	–	–	–	–	–	–	–	–	–	–	inactive	>80
Nc1c2c(nc3sc4c(c13)CCCC4)CCCC2	94.6 (≈ 24.4 µg/mL)	1.56 (≈ 0.403 µg/mL)	2.3 (≈ 0.594 µg/mL)	25 (≈ 6.46 µg/mL)	37 (≈ 9.56 µg/mL)	12.5 (≈ 3.23 µg/mL)	19 (≈ 4.91 µg/mL)	25 (≈ 6.46 µg/mL)	12.5 (≈ 3.23 µg/mL)	25 (≈ 6.46 µg/mL)	12.5 (≈ 3.23 µg/mL)	25 (≈ 6.46 µg/mL)	50 (≈ 12.9 µg/mL)	50 (≈ 12.9 µg/mL)	> 50	> 50	52 (≈ 13.4 µg/mL)	34.9	–	–
NC(CC(=O)c1ccc(Cl)cc1Cl)C(Cl)(Cl)Cl (stereo unspecified)	6.04 (≈ 2.03 µg/mL)	0.39 (≈ 0.131 µg/mL)	0.6 (≈ 0.201 µg/mL)	12.5 (≈ 4.19 µg/mL)	12.5 (≈ 4.19 µg/mL)	12.5 (≈ 4.19 µg/mL)	19 (≈ 6.37 µg/mL)	25 (≈ 8.39 µg/mL)	37 (≈ 12.4 µg/mL)	50 (≈ 16.8 µg/mL)	19 (≈ 6.37 µg/mL)	25 (≈ 8.39 µg/mL)	12.5 (≈ 4.19 µg/mL)	12.5 (≈ 4.19 µg/mL)	> 50	> 50	17.4 (≈ 5.83 µg/mL)	37.9	–	–
COc1ccc(C2(C(=O)Nc3ccc(Br)cc3)CCCC2)cc1	46.5 (≈ 17.4 µg/mL)	19 (≈ 7.11 µg/mL)	19 (≈ 7.11 µg/mL)	19 (≈ 7.11 µg/mL)	12.5 (≈ 4.68 µg/mL)	12.5 (≈ 4.68 µg/mL)	12.5 (≈ 4.68 µg/mL)	12.5 (≈ 4.68 µg/mL)	12.5 (≈ 4.68 µg/mL)	9.4 (≈ 3.52 µg/mL)	9.4 (≈ 3.52 µg/mL)	12.5 (≈ 4.68 µg/mL)	50 (≈ 18.7 µg/mL)	50 (≈ 18.7 µg/mL)	> 50	50 (≈ 18.7 µg/mL)	26.5 (≈ 9.93 µg/mL)	> 100	–	–
CCc1ccc(S(=O)(=O)Nc2cc(CN3CCN(CCC(C)C)CC3)ccc2C)cc1	89.8 (≈ 39.8 µg/mL)	19 (≈ 8.43 µg/mL)	25 (≈ 11.1 µg/mL)	25 (≈ 11.1 µg/mL)	25 (≈ 11.1 µg/mL)	25 (≈ 11.1 µg/mL)	25 (≈ 11.1 µg/mL)	25 (≈ 11.1 µg/mL)	12.5 (≈ 5.55 µg/mL)	12.5 (≈ 5.55 µg/mL)	12.5 (≈ 5.55 µg/mL)	12.5 (≈ 5.55 µg/mL)	> 50	50 (≈ 22.2 µg/mL)	> 50	> 50	45.6 (≈ 20.2 µg/mL)	27.4	–	–
O=C(NC1=NCCS1)c1sc2cc(F)ccc2c1Cl	39.3 (≈ 12.4 µg/mL)	0.6 (≈ 0.189 µg/mL)	1.2 (≈ 0.378 µg/mL)	> 50	> 50	9.4 (≈ 2.96 µg/mL)	> 50	> 50	6.25 (≈ 1.97 µg/mL)	> 50	3.13 (≈ 0.985 µg/mL)	3.13 (≈ 0.985 µg/mL)	3.12 (≈ 0.982 µg/mL)	12.5 (≈ 3.93 µg/mL)	3.12 (≈ 0.982 µg/mL)	12.5 (≈ 3.93 µg/mL)	> 100	> 100	–	–
